Experiments:
human C5aR = human C5aR (Homo sapiens (Human), UniProt P21730); assay: FLIPR assay: inhibition of C5a-mediated calcium mobilization; format: cell-based; details: stable cell line over expressing human C5aR & Gα15, human C5a at EC50 (0.1-0.25 nM)
Method in brief: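 Compounds were added for 30 minutes at room temperature (1% DMSO) ahead of C5a stimulation. Before this, cells were dye-loaded for 1 h at 37° C: calcium 5 with 2.5 mM probenecid in HBSS, 20 mM HEPES, 0.1% BSA. Cells co-express human C5aR and Gα15; read-out is FLIPR Tetra calcium flux.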

CD11b = assay: Human whole blood CD11b up-regulation assay; format: cell-based; details: Homo sapiens, 2 nM human C5a, CD15+ granulocytes, read-out: hCD11b IC50
Method in brief: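 Flow cytometric read-out: CD11b median fluorescence intensity of CD15+ granulocytes, 10,000 events. Stimulus was 2 nM human C5a for 15 min at room temperature, following 10 min compound exposure in 1% DMSO in fresh sodium-heparin whole blood; staining done on ice and erythrocytes lysed.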

Sequence of human C5aR (P21730 whole entry): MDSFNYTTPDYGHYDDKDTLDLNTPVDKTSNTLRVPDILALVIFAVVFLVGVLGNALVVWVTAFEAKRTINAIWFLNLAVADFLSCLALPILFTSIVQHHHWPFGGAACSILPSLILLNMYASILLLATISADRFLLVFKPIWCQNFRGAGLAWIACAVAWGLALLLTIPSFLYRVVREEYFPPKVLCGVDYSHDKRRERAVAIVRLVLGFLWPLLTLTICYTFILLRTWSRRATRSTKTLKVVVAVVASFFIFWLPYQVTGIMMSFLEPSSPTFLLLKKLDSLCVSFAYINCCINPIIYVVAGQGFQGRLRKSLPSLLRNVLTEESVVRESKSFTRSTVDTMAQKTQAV

Row | Structure (SMILES) | IC50 (human C5aR) [µM] | IC50 (CD11b) [µM]
1 | CNCCOc1nc(-c2c(C)ccc3[nH]nc(C)c23)nc2c1CN(c1cc(C(C)C)ccc1C)CC2 [Example 63-G, 2-((2-(3,5-dimethyl-1H-indazol-4-yl)-6-(5-isopropyl-2-methylphenyl)-5,6,7,8-tetrahydropyrido[4,3-d]pyrimidin-4-yl)oxy)-N-methylethanamine] | 0.031 | 0.197
2 | CO[C@@H]1CCN(c2nc(-c3c(C)ccc4[nH]nc(C)c34)nc3c2CN(c2cc(C(C)C)ccc2C)CC3)C[C@H]1C [Example 19-AF] | 0.001 | 0.006
3 | [2H]C1([2H])c2c(C)cc(-c3cccc4[nH]cc(C)c34)nc2CCN1c1c(C)nn(CC)c1C [Example 47-B, 6-(1-Ethyl-3,5-dimethyl-1H-pyrazol-4-yl)-4-methyl-2-(3-methyl-1H-indol-4-yl)-5,6,7,8-tetrahydro(5,5-^2H2)-1,6-naphthyridine] | 0.056 | 1.42
4 | CO[C@@H]1CN(c2nc(-c3c(C)ccc4[nH]nc(C)c34)nc3c2CN(c2c(Cl)c(C4CC4)nn2C)CC3)[C@H]1C (racemic) [Example 69-I, 6-(4-chloro-3-cyclopropyl-1-methyl-1H-pyrazol-5-yl)-2-(3,5-dimethyl-1H-indazol-4-yl)-4-((trans)-methoxy-2-methylazetidin-1-yl)-5,6,7,8-tetrahydropyrido[4,3-d]pyrimidine] | 0.004 | 0.025
5 | Cc1ccc2[nH]nc(C)c2c1-c1nc2c(c(N3CC(N(C)C)C3)n1)CN(c1c(Cl)c(C3CC3)nn1C)CC2 [Example 69-J, 1-(6-(4-chloro-3-cyclopropyl-1-methyl-1H-pyrazol-5-yl)-2-(3,5-dimethyl-1H-indazol-4-yl)-5,6,7,8-tetrahydropyrido[4,3-d]pyrimidin-4-yl)-N,N-dimethylazetidin-3-amine] | 0.067 | 0.112
6 | CO[C@H]1CCN(c2nc(-c3c(C(C)C)ccc4[nH]ncc34)nc3c2CN(c2cc(C4(C)COC4)ccc2C)CC3)CC1(C)C [Example 19-AC, (S)-2-(5-isopropyl-1H-indazol-4-yl)-4-(4-methoxy-3,3-dimethylpiperidin-1-yl)-6-(2-methyl-5-(3-methyloxetan-3-yl)phenyl)-5,6,7,8-tetrahydropyrido[4,3-d]pyrimidine] | 0.004 | 0.05
7 | CO[C@H]1CCN(c2nc(-c3c(C)ccc4[nH]nc(C)c34)nc3c2CN(c2cc(C(C)C)ccc2C)CC3)CC1(C)C [Example 19-AI, (S)-2-(3,5-dimethyl-1H-indazol-4-yl)-6-(5-isopropyl-2-methylphenyl)-4-(4-methoxy-3,3-dimethylpiperidin-1-yl)-5,6,7,8-tetrahydropyrido[4,3-d]pyrimidine] | 0.002 | 0.007
8 | COc1ccc(C)c(N2CCc3nc(-c4c(C(C)C)ccc5[nH]ncc45)nc(N4CC[C@H](OC)C(C)(C)C4)c3C2)c1 [Example 19-AE, (S)-2-(5-isopropyl-1H-indazol-4-yl)-6-(5-methoxy-2-methylphenyl)-4-(4-methoxy-3,3-dimethylpiperidin-1-yl)-5,6,7,8-tetrahydropyrido[4,3-d]pyrimidine] | 0.004 | 0.022
9 | CCO[C@@H]1CCN(c2nc(-c3c(C)ccc4[nH]nc(C)c34)nc3c2CN(c2cc(C(C)C)ccc2C)CC3)[C@H](C)C1 [Example 21-AL, 2-(3,5-dimethyl-1H-indazol-4-yl)-4-((2R,4R)-4-ethoxy-2-methylpiperidin-1-yl)-6-(5-isopropyl-2-methylphenyl)-5,6,7,8-tetrahydropyrido[4,3-d]pyrimidine] | 0.001 | 0.019
10 | CO[C@H]1CCN(c2nc(-c3cccc4[nH]cc(C)c34)nc3c2CN(c2cc(C(C)C)ccc2C)CC3)CC1(C)C [Example 17-G, (S)-6-(5-Isopropyl-2-methylphenyl)-4-(4-methoxy-3,3-dimethylpiperidin-1-yl)-2-(3-methyl-1H-indol-4-yl)-5,6,7,8-tetrahydropyrido[4,3-d]pyrimidine] | 0.004 | 0.114
11 | CCc1cccc(CC)c1-c1cc(C)c2c(n1)CCN(c1cc(C(C)C)ccc1C)C2 [Example 41-J, 2-(2,6-diethylphenyl)-6-(5-isopropyl-2-methylphenyl)-4-methyl-5,6,7,8-tetrahydro-1,6-naphthyridine] | 0.022 | 0.302
12 | CO[C@H]1CCN(c2nc(-c3cccc4[nH]cc(C)c34)nc3c2CN(c2cc(C(C)C)ccc2C)CC3)C[C@H]1C (racemic) [Example 17-AQ, racemic 6-(5-isopropyl-2-methylphenyl)-4-(4-methoxy-3-methylpiperidin-1-yl)-2-(3-methyl-1H-indol-4-yl)-5,6,7,8-tetrahydropyrido[4,3-d]pyrimidine] | 0.016 | 0.277
13 | Cc1ccc(C(C)C)cc1N1CCc2nc(-c3cccc4[nH]cc(C)c34)nc(N3CC[C@H](O)[C@H](C)C3)c2C1 (racemic) [Example 17-AN, racemic-1-(6-(5-isopropyl-2-methylphenyl)-2-(3-methyl-1H-indol-4-yl)-5,6,7,8-tetrahydropyrido[4,3-d]pyrimidin-4-yl)-3-methylpiperidin-4-ol] | 0.031 | 0.423
14 | COc1nc(-c2c(C)ccc3[nH]nc(C)c23)nc2c1CN(c1cc(C(C)C)ccc1C)CC2 [Example 31-I, 2-(3,5-dimethyl-1H-indazol-4-yl)-6-(5-isopropyl-2-methylphenyl)-4-methoxy-5,6,7,8-tetrahydropyrido[4,3-d]pyrimidine] | 0.009 | 0.018
15 | CO[C@H]1CCN(c2nc(-c3c(C)cccc3C)nc3c2CN(c2cc(C(C)C)ccc2C)CC3)CC1(C)C [Example 19-AD, (S)-2-(2,6-dimethylphenyl)-6-(5-isopropyl-2-methylphenyl)-4-(4-methoxy-3,3-dimethylpiperidin-1-yl)-5,6,7,8-tetrahydropyrido[4,3-d]pyrimidine] | 0.002 | 0.026
16 | CO[C@@H]1CCN(c2nc(-c3c(C)ccc4[nH]nc(C)c34)nc3c2CN(c2cc(C4CC4)nn2C)CC3)CC1(C)C [Example 23-I, (R)-6-(3-cyclopropyl-1-methyl-1H-pyrazol-5-yl)-2-(3,5-dimethyl-1H-indazol-4-yl)-4-(4-methoxy-3,3-dimethylpiperidin-1-yl)-5,6,7,8-tetrahydropyrido[4,3-d]pyrimidine] | 0.0005 | 0.022
17 | COc1ccc(C)c(N2CCc3nc(-c4c(C)cccc4C)nc(N4CC[C@@H](OC)C[C@H]4C)c3C2)c1 [Example 21-N, 2-(2,6-dimethylphenyl)-6-(5-methoxy-2-methylphenyl)-4-((2R,4R)-4-methoxy-2-methylpiperidin-1-yl)-5,6,7,8-tetrahydropyrido[4,3-d]pyrimidine] | 0.002 | 0.008
18 | Cc1ccc2[nH]nc(C)c2c1-c1nc2c(c(N3CC[C@@H](N(C)C)C3)n1)CN(c1c(Cl)c(C3CC3)nn1C)CC2 [Example 68-C, (R)-1-(6-(4-chloro-3-cyclopropyl-1-methyl-1H-pyrazol-5-yll)-2-(3,5-dimethyl-1H-indazol-4-yl)-5,6,7,8-tetrahydropyrido[4,3-d]pyrimidin-4-yl)-N,N-dimethylpyrrolidin-3-amine] | 0.016 | 0.069
19 | [2H]C1([2H])c2c(C)cc(-c3cccc4[nH]cc(C)c34)nc2CCN1c1cc(C(C)C)ccc1C [Example 40-S] | 0.078 | 0.793
20 | CO[C@H]1C[C@H]2CC[C@@H](C1)N2c1nc(-c2c(C)ccc3[nH]nc(C)c23)nc2c1CN(c1c(F)c(C3CC3)nn1C)CC2 [Example 56-B] | 0.002 | 0.045

— patent US8846656B2, “Tetrahydropyrido-pyridine and tetrahydropyrido-pyrimidine compounds and use thereof as C5a receptor modulators” (Novartis AG, priority 2011, dated 2014)
